{"source": "patent US12083084B2", "about": "“Method for enhancing energy production and metabolism in cells” (REPLICON HEALTH OY, priority 2013, dated 2024)", "key": {"[1]": {"system": "human hepatocytes", "assay": "Gene expression from hepatocytes lysates", "type": "cell-based", "conditions": "N = 5"}, "[2]": {"assay": "Extended 8 week administration and 2 week control period for S4 (Example 2.2)", "type": "in vivo, human", "conditions": "for AST/ALT / S-Bil / S-Uraat / fS-Fe / fS-Trigly: fasting blood", "procedure": "For Subject 4 (S4) in Example 2.1, the 4 day test period was prolonged by 8 weeks with reduced, only once a day 5 mg/kg/day administration before going to bed. Additionally in order to have an understanding that the results in the 8 week test were due to the administration of the Innovation, an additional negative control measurement without DGAcs after 2 weeks and 2 days was made (+2 days due to alleviating doses see below). The idea was to see, if the beneficial effects seen in 4 day treatment prevailed in longer term (positive control)."}, "[3]": {"assay": "4.5 day acute test, wide blood panel (Example 2.3.1)", "type": "in vivo, human", "conditions": "for increased level of blood triglycerides: 4.5 day test", "procedure": "In earlier in vivo experiments (Example 2.1 and 2.2) the last DGAcs was taken in previous night. In this Example the last dose was double in size (=some 10 mg/kg), and it was taken in the same morning as the collection of blood samples. Higher than “normal” therapeutic dose and short time to blood measurement was chosen in order to see a clearer dose response compared to zero control. On top of very wide blood panel, like in Examples 2.1 and 2.2, also gene expression analyses from peripheral leukocytes (Example 2.3.2 below), and concentration analyses from collected plasma samples (Example 2.3.3) was conducted. Also glucose tolerance test and related insulin measurements (Example 2.3.4 below) was conducted. By comparing results of subject 1 (S1) from Example 2.1 and in Example 2.3.1 (below), it is fairly straightforward to see that this “high dose and immediate response strategy” was efficient, and it produced even very important deviations in some parameters due to different administrations.\nIn this Example the 4 day experiment in Example 2.1 was extended into 4.5 day experiment by additional DGAcs dose in the morning before blood measurement. Same wide fasting blood panel consisting of 25 different metrics and full blood count was measured for all participants (sample analytics by United Medix Laboratories, Finland).\nTwo healthy volunteers (S1 and S9) and two (otherwise healthy) volunteers using statin medication (S10 and S11) were chosen for the experiment. The test set up was double blinded. S1 had participated in the earlier 4 day experiment (see Table 3 above and also to a 3 week pilot testing) and served as an important positive control on the efficacy of the DGAcs. Statin group on the other hand was chosen as some kind of a negative control because statins to some extend can possibly counter act the positive effects of the DGAcs and on the other hand also have similar health effects. Statins suppress mevalonate pathway by inhibiting HMG Coa reductase activity and also disturb balancing of cellular NADPH/NADP^+ levels (FIGS. 3b and 4). […] Statin treatment group was not expected to yield positive results but possibly vice versa. For S10 the statin dose was halved two weeks before the test from 20 mg to 10 mg (Simvastatin). For S11 statin treatment was kept at 20 mg per day (also Simvastatin)."}, "[4]": {"assay": "Glucose tolerance test, plasma glucose and insulin", "type": "in vivo, human", "conditions": "4.5 day experiment", "procedure": "In the 4.5 day experiment also standard, fasting glucose tolerance test was conducted for S1 and S9 starting after 2.5 hours of last administration of DGAcs. Blood glucose levels were measured at 0 h, 60 min and 120 minutes."}, "[5]": {"assay": "3 week ad libitum feeding study, food intake and body weight", "type": "in vivo, rat", "procedure": "In this in vivo experiment 45 rats (24 males and 21 females) were tested in Finnish National Institute of Health. Used DGAcs doses were high compared to human trials ranging between 100-1000 mg/kg/day, but on the other hand the metabolism of rats is much faster than in humans and thus the effective doses for rats can be clearly higher than for humans. In some experiments even 20-50 times higher compared to humans in vivo have been reported in literature. Thus this experiment can give indication also for human use. The animals were kept under controlled conditions, with the temperature set from 20° C. to 21° C., the humidity at 47.6%, and a 12-hour light-dark cycle (lights on at 6:00 am). In this ad libitum feeding study the DGAcs was mixed in the diet for the whole experimental period (3 weeks). The animals were divided into 4 groups, which received 0 (zero control), 2, 10, and 20 g glycerate per kilogram of diet. The average DGAcs consumption was 0.1, 0.5, and 1.0 g/kg per day, respectively, as calculated based on weekly food consumption. The animals experimented were 3 to 5 months old AA rats. The animals were given water and a standard laboratory feed (SDS RM1) ad libitum for 3 weeks. In the experiment the development of weights of rats receiving DGAcs, and the control were measured, as well as the food consumption during the experiment and change in the body weight. Males and females were separated resulting altogether to 8 groups with 5-6 animals in each."}, "[6]": {"conditions": "S4, +2 weeks follow up after stopping DGAcs (negative control), change from previous observation (+8 weeks)"}, "[7]": {"conditions": "S4, +2 weeks follow up after stopping DGAcs (negative control)"}, "[8]": {"conditions": "S4, +8 weeks 5 mg/kg once a day (positive control), change from previous observation (4 day)"}, "[9]": {"conditions": "S4, +8 weeks 5 mg/kg once a day (positive control)"}, "[10]": {"conditions": "4.5 day, 5 mg/kg twice a day, last dose 10 mg/kg, 2.5 hours after last dose, healthy males S1 and S9, fasting blood, vs 0-control"}}, "note": "“And” between values parts separate entries of the source, which are not always exact repeats. Identical values can stand only once.", "data": [{"smiles": "O.O.O=C([O-])[C@H](O)CO.O=C([O-])[C@H](O)CO.[Ca+2]", "note": "[DGAcs, D-glyceric acid, calcium salt dehydrate]", "values": [{"measurement": "CYP2B6 gene expression deviation from control", "setting": "[1]; donor alpha, 1.4 (μM)", "result": 38, "unit": "%"}, {"measurement": "PGC-1a gene expression deviation from control", "setting": "[1]; donor alpha, 1.4 (μM)", "result": 5, "unit": "%"}, {"measurement": "CYP2B6 gene expression deviation from control", "setting": "[1]; donor alpha, 14 (μM)", "result": 45, "unit": "%"}, {"measurement": "PGC-1a gene expression deviation from control", "setting": "[1]; donor alpha, 14 (μM)", "result": 20, "unit": "%"}, {"measurement": "CYP2B6 gene expression deviation from control", "setting": "[1]; donor one, 1.4 (μM)", "result": 8, "unit": "%"}, {"measurement": "HO-1 gene expression deviation from control", "setting": "[1]; donor one, 1.4 (μM)", "result": 54, "unit": "%"}, {"measurement": "PGC-1a gene expression deviation from control", "setting": "[1]; donor one, 1.4 (μM)", "result": 12, "unit": "%"}, {"measurement": "CYP2B6 gene expression deviation from control", "setting": "[1]; donor one, 14 (μM)", "result": 3, "unit": "%"}, {"measurement": "HO-1 gene expression deviation from control", "setting": "[1]; donor one, 14 (μM)", "result": 50, "unit": "%"}, {"measurement": "PGC-1a gene expression deviation from control", "setting": "[1]; donor one, 14 (μM)", "result": 42, "unit": "%"}, {"measurement": "CYP2B6 gene expression deviation from control", "setting": "[1]; donor three, 1.4 (μM)", "result": 29, "unit": "%"}, {"measurement": "HO-1 gene expression deviation from control", "setting": "[1]; donor three, 1.4 (μM)", "result": 83, "unit": "%"}, {"measurement": "PGC-1a gene expression deviation from control", "setting": "[1]; donor three, 1.4 (μM)", "result": 45, "unit": "%"}, {"measurement": "CYP2B6 gene expression deviation from control", "setting": "[1]; donor three, 14 (μM)", "result": 49, "unit": "%"}, {"measurement": "HO-1 gene expression deviation from control", "setting": "[1]; donor three, 14 (μM)", "result": 21, "unit": "%"}, {"measurement": "PGC-1a gene expression deviation from control", "setting": "[1]; donor three, 14 (μM)", "result": 1, "unit": "%"}, {"measurement": "S-Asat, change", "setting": "[2]; [6]", "result": 24.1, "unit": "%"}, {"measurement": "S-Bil, change", "setting": "[2]; [6]", "result": 41.7, "unit": "%"}, {"measurement": "S-Uraat, change", "setting": "[2]; [6]", "result": 19.4, "unit": "%"}, {"measurement": "S-alat, change", "setting": "[2]; [6]", "result": "−35.1", "unit": "%"}, {"measurement": "fS-Fe, change", "setting": "[2]; [6]", "result": "−3.2", "unit": "%"}, {"measurement": "fS-Trigly, change", "setting": "[2]; [6]", "result": "−17.8", "unit": "%"}, {"measurement": "AST/ALT", "setting": "[2]; [7]", "result": 1.44}, {"measurement": "S-Bil", "setting": "[2]; [7]", "result": 10.2}, {"measurement": "S-Uraat", "setting": "[2]; [7]", "result": 295}, {"measurement": "fS-Fe", "setting": "[2]; [7]", "result": 15.1}, {"measurement": "fS-Trigly", "setting": "[2]; [7]", "result": 1.11}, {"measurement": "S-Asat, change", "setting": "[2]; [8]", "result": 31.8, "unit": "%"}, {"measurement": "S-Bil, change", "setting": "[2]; [8]", "result": "−25.8", "unit": "%"}, {"measurement": "S-Uraat, change", "setting": "[2]; [8]", "result": 0.4, "unit": "%"}, {"measurement": "S-alat, change", "setting": "[2]; [8]", "result": 85.0, "unit": "%"}, {"measurement": "fS-Fe, change", "setting": "[2]; [8]", "result": "−22.8", "unit": "%"}, {"measurement": "fS-Trigly, change", "setting": "[2]; [8]", "result": "−22.0", "unit": "%"}, {"measurement": "AST/ALT", "setting": "[2]; [9]", "result": 0.78}, {"measurement": "S-Bil", "setting": "[2]; [9]", "result": 7.2}, {"measurement": "S-Uraat", "setting": "[2]; [9]", "result": 247}, {"measurement": "fS-Fe", "setting": "[2]; [9]", "result": 15.6}, {"measurement": "fS-Trigly", "setting": "[2]; [9]", "result": 1.35}, {"measurement": "time without dose until withdrawal symptoms started", "setting": "[2]; S4, after 8 weeks of 5 mg/kg/day", "result": 36, "unit": "h"}, {"measurement": "withdrawal symptoms after stopping administration", "setting": "[2]; S4, after 8 weeks of 5 mg/kg/day, bad feeling inside the head, dizziness, uneasiness", "result": "very clear but not severe"}, {"measurement": "HDL, 4.5 day change", "setting": "[3]; [10]", "result": "1% and −1%"}, {"measurement": "S-Afos, 4.5 day change", "setting": "[3]; [10]", "result": "8% and 12%"}, {"measurement": "S-Alb, 4.5 day change", "setting": "[3]; [10]", "result": "5% and 10%"}, {"measurement": "S-Amyl, 4.5 day change", "setting": "[3]; [10]", "result": "−5% and −3%"}, {"measurement": "S-Cal, 4.5 day change", "setting": "[3]; [10]", "result": "4% and 3%"}, {"measurement": "S-LDH, 4.5 day change", "setting": "[3]; [10]", "result": "−4% and −7%"}, {"measurement": "S-Mg, 4.5 day change", "setting": "[3]; [10]", "result": "5% and 0%"}, {"measurement": "S-Na, 4.5 day change", "setting": "[3]; [10]", "result": 1, "unit": "%"}, {"measurement": "S-Uraat, 4.5 day change", "setting": "[3]; [10]", "result": "4% and −1%"}, {"measurement": "fS-Gluk, 4.5 day change", "setting": "[3]; [10]", "result": "−2% and 4%"}, {"measurement": "fS-Krea, 4.5 day change", "setting": "[3]; [10]", "result": "3% and 9%"}, {"measurement": "fS-Transf, 4.5 day change", "setting": "[3]; [10]", "result": "5% and 8%"}, {"measurement": "fS-Trigly, 4.5 day change", "setting": "[3]; [10]", "result": "−3% and −5%"}, {"measurement": "blood LDH declined", "setting": "[3]; S1, 4.5 day test", "result": 4, "unit": "%"}, {"measurement": "blood urea decline", "setting": "[3]; S1, 4.5 day test", "result": 7, "unit": "%"}, {"measurement": "creatine kinase (S-CK) declined", "setting": "[3]; S1, 4.5 day test", "result": 14, "unit": "%"}, {"measurement": "AST/ALT (ratio) after treatment", "setting": "[3]; S1, 4.5 day test (zero control 1.32)", "result": 0.96}, {"measurement": "increased level of blood triglycerides", "setting": "[3]; S10, statin group (Simvastatin 10 mg)", "result": "+83.5%"}, {"measurement": "increased level of blood triglycerides", "setting": "[3]; S11, statin group (Simvastatin 20 mg)", "result": "+25.6%"}, {"measurement": "drop of blood glucose at 120 min", "setting": "[4]; S1 (starting level 5.0 mmol/L), 75 g glucose", "result": "marginal"}, {"measurement": "blood glucose lower at 120 min compared to the control", "setting": "[4]; S9 (fasting blood glucose 6.0 mmol/L), 75 g glucose", "result": "~0.6", "unit": "mmol/L"}, {"measurement": "blood insulin level at 60 minutes", "setting": "[4]; S9, 75 g glucose", "result": "higher insulin level"}, {"measurement": "increase in food intake", "setting": "[5]; DGAcs groups, males and females", "result": "2.5-4%"}, {"measurement": "average weight change compared to control", "setting": "[5]; female rats, 3 weeks", "result": "+0.2%"}, {"measurement": "average weight increasing compared to control", "setting": "[5]; female rats, 3 weeks", "result": 0.6, "unit": "grams"}, {"measurement": "food intake higher compared to the control", "setting": "[5]; female rats, DGAcs groups combined, 3 weeks", "result": 2.5, "unit": "%"}, {"measurement": "food intake higher compared to the control", "setting": "[5]; male rats, DGAcs groups combined (0.1, 0.5, 1.0 g/kg per day), 3 weeks", "result": 3.7, "unit": "%"}, {"measurement": "amount of unexplained energy consumption", "setting": "[5]; males", "result": "roughly 5%"}]}]}
